# Reference: patent US8604206B2, “Compositions for preventing and/or treating degenerative disorders of the central nervous system” (Amicus Therapeutics, Inc., priority 2009, dated 2013)
# Structures can show the parent of a compound that is named as a salt. Where two headings read alike, the source gives them in different places.
# Key:
# GCase [1] = biological target: GCase (Homo sapiens (Human), UniProt P04062); assay: GCase activity enhancement (EC50, Emax) of Table 2B; type: cell-based; details: for increase in GCase activity compared to IFG-tartrate: compared to reference compound IFG-tartrate
# lysosomal GCase = lysosomal GCase (Homo sapiens (Human), UniProt P04062); assay: In situ lysosomal GCase inhibition and washout assay in fibroblasts from a normal subject; type: cell-based; details: for in situ washout: fibroblasts treated at IC90, then drug-free medium; for IC50: fibroblasts, 16-24 hours with compound, PFBFDβGlu substrate
# Method: The effect of the novel compounds of the present invention on lysosomal GCase activity was assayed in situ using fibroblasts established from a normal subject. Cells seeded in 48-well plates were incubated with the indicated concentrations of compound for 16-24 hours. For the dose-response assays, cells were incubated with the in situ substrate 5-(pentafluorobenzoylamino)fluorescein di-β-D-glucopyranoside (PFBFDβGlu) for 1 hour and subsequently lysed to determine the extent of substrate hydrolysis in the presence of compound. […] Inhibition was determined as the ratio of activity in the presence of compound to that in the absence of compound. […] Cells were washed extensively and incubated in drug-free medium to allow net compound efflux from cells. Cells were then tested for lysosomal GCase activity at 2 hour intervals over a total period of 8 hours following compound removal. The increase in activity over time was fitted with a single exponential function to determine the compound's washout time.
# [2] = biological target: recombinant human GCase (rhGCase; Cerezyme®) (Homo sapiens (Human), UniProt P04062, R534H); assay: In vitro enzyme inhibition assay (4-MU-β-D-Glc substrate), inhibition constants; type: biochemical
# Method: The binding affinity (defined here by Ki binding constant) of GCase for novel compounds of the present invention were empirically determined using enzyme inhibition assays. In brief, the enzyme inhibition assays used monitored the ability of a test compound to bind and prevent the hydrolysis of a fluorogenic substrate in a concentration-dependent mariner. Specifically, the enzyme activity of recombinant human GCase (rhGCase; Cerezyme®, Genzyme Corp.) was measured using the 4-methylumbelliferyl-β-D-glucopyranoside (4-MU-β-D-Glc) fluorogenic substrate in the absence or in the presence of varying amounts of each test compound. […] The enzyme inhibition assays were performed at both pH 7.0 (endoplasmic reticulum pH) and at pH 5.2 (lysosomal pH) to gain insight into the binding affinity (i.e., potency) of compounds for GCase in the endoplasmic reticulum and lysososome.
# Various concentrations of test compounds were prepared in buffer “M” consisting of 50 mM sodium phosphate buffer with 0.25% sodium taurocholate at pH 7.0 and pH 5.2. Enzyme (Cerezyme®, a recombinant form of the human enzyme β-glucocerebrosidase) was also diluted in the same buffer “M” at pH 7.0 and pH 5.2. […] Five microliters of diluted enzyme was added to 15 μl of the various inhibitor concentrations or buffer “M” alone and incubated at 37° C. for 1 hour with 50 μl of the substrate preparation to assess β-glucosidase activity at pH 7.0 and pH 5.2. […] Fluorescence was measured on a plate reader for 1 sec/well using 355 nm excitation and 460 nm emission.
# [3] = Blood brain barrier penetration, plasma and brain levels after oral administration; type: in vivo, mouse; details: mice, single 30 mg/kg (free base equivalent) p.o.
# Method: For this purpose, 8-week old wild-type male mice (C57BL/6) were administered a single 30 mg/kg (free base equivalent) p.o. dose of reference or test compound by gavage (n=3 mice per time point). Dosing solutions were prepared in water. After dosing, mice were euthanized with CO2 at the following time points: 0-, 0.5-, 1-, and 4-hour post-dose. […] Similarly, brains were collected from each mouse. Plasma was derived by spinning whole blood at 2,700×g for 10 minutes at 4° C. followed by storage on dry ice. Whole brains were washed in cold PBS to remove contaminating blood, blotted dry, flash frozen on dry ice, and ultimately stored at −80° C. until analysis. To prepare brain samples for analysis, 50-100 mg of tissue was homogenized in […] of water/mg tissue. Samples were then clarified by centrifugation. Next, 25 μl of the brain homogenate supernatant or 25 μl of plasma were combined with 25 μl of acetonitrile:water (95/5). […] Samples were again clarified by centrifugation and 75 μl of the supernatant was combined with 75 μl of acetonitrile. Samples were then analyzed for compound levels by LC-MS/MS at PPD Inc. (3230 Deming Way, Middleton, Wis. 53562). In brief, a Thermo Betasil, Silica-100, 50×3 mm, 5μ column equilibrated with a mixture of mobile phase consisting of 5 mM ammonium formate and 0.05% formic acid in (A) 95:5 acetonitrile:water or (B) 70:20:10 methanol:water:acetonitrile was employed. Between 20 and 30 μl sample was injected for analysis. For calculating drug concentrations, raw data for plasma (ng/mL) and brain (ng/g) was converted to nM using the molecular weight of respective compounds and assuming 1 g of tissue is equivalent to 1 mL volume. Concentration as a function of time was plotted in GraphPad Prism version 4.02.
# Rat pharmacokinetics = type: in vivo; details: listed as (3R,4R,5S)-5-(1-fluoroethyl)piperidine-3,4-diol-HCl
# Method: Pharmacokinetic (PK) data was obtained in rats to assess the bioavailability of test compound. In particular, the following PK parameters were calculated: bioavailability as measured by area under the Concentration/Time curve (AUC), fraction of dose available (% F; further defined below), clearance (CL), volume of distribution (Vd), and half-life (t½). […] Three rats were used per dosing group. Blood was collected over a 24-hr period. The time points for blood collection after intravenous administration were: 0, 2.5, 5, 10, 15, 30, 45 min, 1, 2, 4, 8, 12, and 24 hrs; time points for blood collection after p.o. administrations were: 0, 5, 15, 30, 45 min, 1, 2, 3, 4, 8, 12, and 24 hrs. Plasma samples were analyzed for compound levels by LC-MS/MS at PPD. Raw data was analyzed by non-compartmental analysis in Win-nonLin to calculate VD, % F, CL, and t1/2.
# GCase [4] = biological target: GCase (Mus musculus, UniProt P17439); assay: GCase enhancement in tissues of orally dosed mice; type: in vivo; details: 9 doses over 2 weeks
# Method: The ability of orally administered test compounds ((3R,4R,5S)-5-(difluoromethyl)piperidine-3,4-diol, (3R,4R,5S)-5-(1-fluoroethyl)piperidine-3,4-diol, (3R,4R,5S)-5-((R)-1-fluoropropyl)piperidine-3,4-diol hydrochloride, or (3R,4R,5S)-5-benzylpiperidine-3,4-diol) to elevate GCase levels was assessed in mice. For this purpose, 8-week old wild-type male mice (C57BL/6) were administered a […] p.o. (gavage) dose of a compound of the present invention (i.e., (3R,4R,5S)-5-(difluoromethyl)piperidine-3,4-diol, (3R,4R,5S)-5-(1-fluoroethyl)piperidine-3,4-diol, (3R,4R,5S)-5-((R)-1-fluoropropyl)piperidine-3,4-diol hydrochloride, or (3R,4R,5S)-5-benzylpiperidine-3,4-diol). The dosing solutions were prepared in water. Compounds were administered over 2 weeks as follows: week 1, Mon-Fri (On), Sat-Sun (Off); week 2, Mon-Thu (On); necropsy on Friday. Thus, a total of 9 doses (dosing solutions prepared fresh every day) were given to each mouse, with a 24-hour washout between the last dose and necropsy.
# Plasma was collected by spinning blood at 2700 g for 10 minutes at 4° C. Liver, spleen, lung, and brain tissues were removed, washed in cold PBS, blotted dry, flash frozen on dry ice, and stored at −80° C. until analysis. GCase levels were measured by homogenizing approximately 50 mg tissue in 500 μL McIlvane (MI) buffer (100 mM sodium citrate, 200 mM sodium phosphate dibasic, 0.25% sodium taurocholate, and 0.1% Triton X-100, pH 5.2) at pH 5.2 for 3-5 seconds on ice with a micro homogenizer. Homogenates were then incubated at room temperature without and with 2.5 mM conduritol-B-epoxide (CBE) for 30 min. Finally, 3.7 mM 4-methylumbeliferryl-β-glucoside (4-MUG) substrate was added and incubated at 37° C. for 60 min. […] Fluorescence was measured on a plate reader for 1 sec/well using 355 nm excitation and 460 nm emission. Total protein was determined in lysates using the MicroBCA kit according to the manufacturer's instructions. A 4-methylumbelliferone (4-MU) standard curve ranging from 1.0 nM to 50 μM was run in parallel for conversion of raw fluorescence data to absolute GCase activity (in the presence and absence of CBE) and expressed as nanomoles of 4-MU released per milligram of protein per hour (nmol/mg protein/hr). GCase levels and protein levels were calculated using Microsoft Excel (Redmond, Wash.) and GraphPad Prism version 4.02.
# [5] = pH 5.2, Cheng-Prusoff from IC50, read-out: Ki (μM) pH 5.2
# [6] = pH 5.2, read-out: IC50 (μM) pH 5.2
# [7] = pH 5.2, repeated in Table 3A, read-out: Ki pH 5.2
# [8] = pH 5.2, repeated in Table 3B, read-out: Ki pH 5.2
# [9] = pH 7.0, Cheng-Prusoff from IC50, read-out: Ki (μM) pH 7.0
# [10] = pH 7.0, read-out: IC50 (μM) pH 7.0
# lysosomal GCase, sequence (P04062 40-536): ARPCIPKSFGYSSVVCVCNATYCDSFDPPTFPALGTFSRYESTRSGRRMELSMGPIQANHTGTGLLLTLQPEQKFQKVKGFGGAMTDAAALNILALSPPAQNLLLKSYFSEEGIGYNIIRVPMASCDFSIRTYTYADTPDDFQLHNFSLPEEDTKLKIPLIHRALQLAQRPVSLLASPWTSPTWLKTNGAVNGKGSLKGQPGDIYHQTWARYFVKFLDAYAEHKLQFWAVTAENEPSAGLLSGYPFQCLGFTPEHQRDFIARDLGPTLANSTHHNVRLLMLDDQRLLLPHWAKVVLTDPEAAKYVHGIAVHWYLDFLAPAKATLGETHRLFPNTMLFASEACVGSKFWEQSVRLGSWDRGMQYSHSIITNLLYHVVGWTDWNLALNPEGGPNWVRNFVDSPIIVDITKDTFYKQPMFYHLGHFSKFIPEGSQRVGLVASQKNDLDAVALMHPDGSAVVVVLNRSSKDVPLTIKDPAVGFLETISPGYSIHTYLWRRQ
# GCase (Homo sapiens (Human), UniProt P04062), sequence (P04062 40-536): as above
# recombinant human GCase (rhGCase; Cerezyme®), sequence (P04062 40-536 R534H limits assumed): as the sequence (P04062 40-536) above, with R495H counted along it
# GCase (Mus musculus, UniProt P17439), sequence (P17439 20-515 limits assumed): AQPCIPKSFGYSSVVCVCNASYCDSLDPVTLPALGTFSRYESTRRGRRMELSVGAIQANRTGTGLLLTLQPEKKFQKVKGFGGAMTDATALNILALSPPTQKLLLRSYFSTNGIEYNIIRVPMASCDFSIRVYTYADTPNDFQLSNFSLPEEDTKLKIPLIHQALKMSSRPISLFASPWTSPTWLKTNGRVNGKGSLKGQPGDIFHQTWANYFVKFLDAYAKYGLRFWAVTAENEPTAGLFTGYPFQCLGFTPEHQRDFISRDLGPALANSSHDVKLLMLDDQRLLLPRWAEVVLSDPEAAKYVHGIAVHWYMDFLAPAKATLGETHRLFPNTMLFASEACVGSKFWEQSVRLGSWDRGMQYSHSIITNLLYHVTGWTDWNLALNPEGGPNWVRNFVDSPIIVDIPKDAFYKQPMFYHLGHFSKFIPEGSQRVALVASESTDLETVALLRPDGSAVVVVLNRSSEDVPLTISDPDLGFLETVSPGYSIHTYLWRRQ
SMILES,in situ washout (lysosomal GCase) [h],EC50 (GCase [1]) [nM],"Ki [2, 5] [µM]","IC50 [2, 6] [µM]","Ki [2, 9] [µM]","IC50 [2, 10] [µM]",IC50 (lysosomal GCase) [nM],also measured
C[C@@H](F)[C@@H]1CNC[C@@H](O)[C@@H]1O.Cl [Cmpd 14],3.7 ± 0.63,–,–,–,–,–,–,Emax (%) (GCase [1]): 89.7 ± 3.5%
"CC(O)[C@H]1CNC[C@@H](O)[C@@H]1O (single isomer, unassigned)",–,–,–,–,–,–,–,increase in GCase activity compared to IFG-tartrate (GCase [1]): enhanced enzyme activity to the same maximum level as reference compound IFG-tartrate at much lower concentration; inhibition of GCase activity (lysosomal GCase): inhibited GCase activity
"C[C@H](F)C1CNC[C@@H](O)[C@@H]1O (stereo in doubt) [Cmpd 13, (3R,4R,5R)-5((S)-1-Fluoroethyl)piperidine 3,4-diol Hydrochloride]",2.7 ± 0.12,–,–,–,–,–,–,–
"C[C@H](O)[C@H]1CNC[C@@H](O)[C@@H]1O (single isomer, unassigned) [Cmpd 10]",12 ± 1.65,1060 ± 120,0.142 ± 0.0088,0.343 ± 0.021,0.035 ± 0.0021,0.066 ± 0.0041,798 ± 43,–
"C[C@@H](F)[C@@H]1CNC[C@@H](O)[C@@H]1O.Cl [Cmpd 14, (3R,4R,5R)-5((R)-(1-Fluoroethyl)piperidine 3,4-diol Hydrochloride]",–,26 ± 3,0.016 ± 0.0007,0.038 ± 0.0016,0.004 ± 0.0001,0.007 ± 0.0003,61 ± 19,–
"CC(F)[C@H]1CNC[C@@H](O)[C@@H]1O (single isomer, unassigned)",–,–,–,–,–,–,–,"blood brain barrier crossing compared to IFG-tartrate [3]: crossed the blood brain barrier more readily as compared to IFG-tartrate; levels detected in brain compared to IFG-tartrate [3]: higher levels; AUClast (hr*ng/ml), AUC0-24 hr (Rat pharmacokinetics; IV, 3 mg/kg free base): 1370 ± 109 ng·h/mL; CL (Rat pharmacokinetics; IV, 3 mg/kg free base): 36.47 ± 2.88 mL/min/kg; Cmax (Rat pharmacokinetics; IV, 3 mg/kg free base): 2427 ± 192 ng/mL; VD (Rat pharmacokinetics; IV, 3 mg/kg free base): 6.304 ± 0.927 L/kg; t1/2 (Rat pharmacokinetics; IV, 3 mg/kg free base): 2.06 ± 0.47 h; AUClast (hr*ng/ml), AUC0-24 hr (Rat pharmacokinetics; PO, 10 mg/kg free base): 4251 ± 88 ng·h/mL; t1/2 (Rat pharmacokinetics; PO, 10 mg/kg free base): 3.0 ± 0.22 h; AUClast (hr*ng/ml), AUC0-24 hr (Rat pharmacokinetics; PO, 30 mg/kg free base): 14229 ± 127 ng·h/mL; Cmax (Rat pharmacokinetics; PO, 30 mg/kg free base): 4680 ± 369 ng/mL; AUClast (hr*ng/ml), AUC0-24 hr (Rat pharmacokinetics; PO, 100 mg/kg free base): 50946 ± 713 ng·h/mL; Cmax (Rat pharmacokinetics; PO, 100 mg/kg free base): 15733 ± 622 ng/mL; t1/2 (Rat pharmacokinetics; PO, 100 mg/kg free base): 2.4 ± 0.16 h; increase in GCase activity compared to IFG-tartrate (GCase [1]): enhanced enzyme activity to the same maximum level as reference compound IFG-tartrate at much lower concentration; GCase increase (fold) (GCase [4]; brain, 10 mg/kg FBE p.o., 24-hour washout): 1.5 fold; GCase enhancement in brain and spleen (GCase [4]; mice, p.o.): significant GCase enhancement in brain and spleen; inhibition of GCase activity (lysosomal GCase): inhibited GCase activity; in situ washout from the lysosomal compartment compared to IFG-tartrate (lysosomal GCase; compared to reference compound IFG-tartrate): considerably faster than reference compound IFG-tartrate"

# Now from value to molecule, other results behind:
in situ washout (lysosomal GCase) [h],EC50 (GCase [1]) [nM],"Ki [2, 5] [µM]","IC50 [2, 6] [µM]","Ki [2, 9] [µM]","IC50 [2, 10] [µM]",IC50 (lysosomal GCase) [nM],SMILES,also measured
–,791 ± 162,0.097 ± 0.0015,0.234 ± 0.0037,0.015 ± 0.0007,0.029 ± 0.0013,–,"CC(C)(O)[C@H]1CNC[C@@H](O)[C@@H]1O [(3R,4R,5S)-5-(2-hydroxypropan-2-yl)piperidine-3,4-diol]","Ki [2, 7]: 0.097 ± 0.0015 µM; Ki [2, 8]: 0.097 ± 0.0015 µM"
–,4990 ± 860,1.36 ± 0.1,3.29 ± 0.25,0.0089 ± 0.0018,0.017 ± 0.0035,–,"O[C@@H]1[C@@H]([C@H](O)c2ccccc2)CNC[C@H]1O [(3R,4R,5R)-5-((S)-hydroxy(phenyl)methyl)-piperidine-3,4-diol]","Ki [2, 7]: 1.36 ± 0.1 µM; Ki [2, 8]: 1.36 ± 0.1 µM"
10.5 ± 1.75,490 ± 60,0.044 ± 0.0017,0.107 ± 0.0041,0.01 ± 0.0004,0.02 ± 0.0008,518 ± 22,"CC(O)[C@H]1CNC[C@@H](O)[C@@H]1O (single isomer, unassigned) [Cmpd 9]",Emax (GCase [1]): 83.7 ± 2.9%
